In assay [1] the target is T1, ML1b receptor (Homo sapiens, UniProt P49286).
T1 construct: expressed in transfected cells
T1 sequence (P49286 1-362): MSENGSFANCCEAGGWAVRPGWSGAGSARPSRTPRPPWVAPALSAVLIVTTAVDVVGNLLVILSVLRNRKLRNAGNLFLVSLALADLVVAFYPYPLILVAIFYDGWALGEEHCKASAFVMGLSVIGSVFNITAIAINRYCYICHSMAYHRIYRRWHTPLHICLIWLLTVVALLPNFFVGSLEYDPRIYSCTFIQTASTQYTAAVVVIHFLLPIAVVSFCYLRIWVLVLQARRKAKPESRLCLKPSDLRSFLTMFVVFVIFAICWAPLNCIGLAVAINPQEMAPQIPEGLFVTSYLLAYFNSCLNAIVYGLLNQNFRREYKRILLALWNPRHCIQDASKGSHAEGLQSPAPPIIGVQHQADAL
Put plainly: Melatonergic receptor binding activity, 2-[125I]-iodomelatonin, ML1b. The following applies: 37° C. for 1 hour. Here is the method: (§1) Melatonergic Receptor Binding Activity
(§2) (a) TME=50 mM Tris buffer containing 12.5 mM MgCl2, and 2 mM EDTA, pH 7.4 at 37° C., with concentrated HCl.
(§3) (b) Wash buffer: 20 mM Tris base containing 2 mM MgCl2, pH 7.4 at room temperature.
(§4) (c) 10^−4 M melatonin (10^−5 M final concentration).
(§5) (d) 2-[^125I]-iodomelatonin, […] final concentration.
(§6) 3. Incubation: 37° C. for 1 hour. Reaction is terminated by filtration. Filters were washed 3 times.
(§7) The compounds of the present invention have affinity for receptors of the endogenous pineal hormone, melatonin, as determined in a receptor binding assays described above in Tables I to V for the ML1a and ML1b (human) receptors. Melatonin is involved in the regulation of a variety of biological rhythms and exerts its biological effects via interaction with specific receptors. There is evidence that administration of melatonin agonists are of clinical utility in the treatment of various conditions regulated by melatonin activity. Such conditions include depression, jet-lag, work-shift syndrome, sleep disorders, glaucoma, some disorders associated with reproduction, cancer benign prostatic hyperplasia, immune disorders and neuroendocrine disorders.

The target of assay [2] is T2, ML1a receptor (Homo sapiens, UniProt P48039).
T2 construct: expressed in transfected cells; pcDNA3)
T2 sequence (P48039 whole entry): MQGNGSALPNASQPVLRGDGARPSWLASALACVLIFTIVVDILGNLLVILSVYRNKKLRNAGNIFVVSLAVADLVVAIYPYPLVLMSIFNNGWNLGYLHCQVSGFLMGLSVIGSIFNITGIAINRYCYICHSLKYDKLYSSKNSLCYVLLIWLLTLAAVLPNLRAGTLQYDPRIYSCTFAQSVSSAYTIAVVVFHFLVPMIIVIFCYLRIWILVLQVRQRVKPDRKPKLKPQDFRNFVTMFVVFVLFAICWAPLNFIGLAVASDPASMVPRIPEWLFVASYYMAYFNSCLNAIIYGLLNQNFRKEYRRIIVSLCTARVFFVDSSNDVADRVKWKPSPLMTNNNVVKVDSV
As to the kind of experiment: Melatonergic receptor binding activity, 2-[125I]-iodomelatonin, ML1a. The following applies: membrane homogenates of NIH-3T3 cells, 37° C. for 1 hour. How it is done: as §1, §2, §3, §4, §5
2. Membrane Homogenates: The melatonin ML1α receptor cDNA was subcloned into pcDNA3 and introduced into NIH-3T3 cells using Lipofectamine. Transformed NIH-3T3 cells resistant to geneticin (G-418) were isolated, and single colonies expressing high levels of 2-[^125I]-iodomelatonin binding were isolated. Cells are maintained in DMEM supplemented with 10% calf serum and G-418 (0.5 g/liter). Cells are grown to confluency in T-175 flasks, scraped using Hank's balanced salt solution, and frozen at −80° C. For preparing membrane homogenates, pellets are thawed on ice, and re-suspended in TME buffer in the presence of 10 μg/ml aprotinin and leupeptin, and 100 μM phenylmethylsulfonylfluoride. The cells were then homogenized using a dounce homogenizer, and centrifuged. The resulting pellet was re-suspended with dounce homogenizer in TME (supplemented with the above protease inhibitors) and frozen. On the day of assay, a small aliquot was thawed on ice and re-suspended in the ice cold TME (1:50-1:100 v/v) and held on ice until assayed.
as §6, §7

In patent US6569894B1, “Arylalkylbenzofuran derivatives as melatonergic agents” (Bristol-Myers Squibb Company, priority 2001, dated 2003) one finds IC50 data, which are given here for 13 molecules.

`CC(=O)NCCCc1cccc2oc(CCCCc3ccc(C(F)(F)F)cc3)cc12` [Example 15, N-[3-[2-[4-(4-Trifluoromethylphenyl)butyl]benzofuran-4-yl]propyl]-acetamide]: the IC50 (as a rule, the concentration needed to halve the response being measured) in assay [1] (Table III) was above 250 nM; in assay [2] (Table III), 10 to 250 nM.
Take `CCCC(=O)NC[C@@H]1C[C@H]1c1cccc2c1C[C@@H](CCCCc1ccccc1)O2` [Example 44, N-({2-[(2R)-2-(4-Phenylbutyl)(2,3-dihydrobenzo[b]furan-4-yl)]-(1R,2R)cyclopropyl}methyl)butanamide]: the IC50 in assay [1] (Table V) and in assay [2] (Table V) was below 10 nM in each case.
For `CCCC(=O)NCCCc1cccc2oc(CCCCc3ccc(C(F)(F)F)cc3)cc12` [Example 17, N-[3-[2-[4-(4-Trifluoromethylphenyl)butyl]benzofuran-4-yl]propyl]-butyramide], the IC50 in assay [1] (Table III) and in assay [2] (Table III) was 10 to 250 nM each time.
As for “N-3-(2-(3-Phenylprop-1-yl)benzofuran-3-yl)prop-1-yl Acetamide [Example 19]”, the IC50 in assay [1] (Table III) was 10 to 250 nM; in assay [2] (Table III) it was below 10 nM.
Take `CC(C)C(=O)NCCCc1cccc2c1C[C@H](CCCCc1ccccc1)O2` (stereo in doubt) [Example 4, N-[3-[2-(4-Phenylbutyl)-2,3-dihydrobenzofuran-4-yl]propyl]-2-methylpropionamide]: the results for the IC50 in assay [1] (Table I) and in assay [2] (Table I) were 10 to 250 nM and below 10 nM, respectively.
As for `CC(C)C(=O)NC[C@@H]1C[C@H]1c1cccc2oc(CCCCc3ccc(F)cc3)cc12` (stereo in doubt) [Example 39, N-[((1R,2R)-2-{2-[4-(4-Fluorophenyl)butyl]benzo[b]furan-4-yl}-cyclopropyl)methyl]-2-methylpropanamide], the IC50 in assay [1] (Table IV) and in assay [2] (Table IV) was 10 to 250 nM each time.
As for “N-{3-[3-Chloro-2-(4-phenylbutyl)benzo[b]furan-4-yl]-propyl}ethoxycarboxamide [Example 27]”, the IC50 in assay [1] (Table III) and in assay [2] (Table III) was above 250 nM in each case.
“N-3-(2-(2-Phenyleth-1-yl)benzofuran-3-yl)prop-1-yl Butyramide [Example 25]”: the IC50 in assay [1] (Table III) and in assay [2] (Table III) was 10 to 250 nM each time.
`O=C(NC[C@@H]1C[C@H]1c1cccc2oc(CCCCc3ccc(F)cc3)cc12)C1CC1` (stereo in doubt) [Example 40, N-[((1R,2R)-2-{2-[4-(4-Fluorophenyl)butyl]benzo[b]furan-4-yl}-cyclopropyl)methyl]cyclopropylcarboxamide]: the IC50 in assay [1] (Table IV) and in assay [2] (Table IV) was 10 to 250 nM each time.
Turning to `CCNC(=O)NC[C@H]1C[C@@H]1c1cccc2oc(CCCCc3ccc(F)cc3)cc12` [Example 41, N-[((1R,2R)-2-{2-[4-(4-Fluorophenyl)butyl]benzo[b]furan-4-yl-}-cyclopropyl)methyl](ethylamino)carboxamide], the IC50 in assay [1] (Table IV) is above 250 nM; in assay [2] (Table IV), 10 to 250 nM.
Consider `CCC(=O)NC[C@@H]1C[C@H]1c1cccc2c1C[C@@H](CCCCc1ccccc1)O2` [Example 43, N-({2-[(2R)-2-(4-Phenylbutyl)(2,3-dihydrobenzo[b]furan-4-yl)]-(1R,2R)cyclopropyl}methyl)propanamide], for which the IC50 in assay [1] (Table V) and in assay [2] (Table V) was below 10 nM each time.
With `CCC(=O)NCCCc1cccc2c1C[C@H](CCCCc1ccccc1)O2` (stereo in doubt) [Example 2, N-[3-[2-(4-Phenylbutyl)-2,3-dihydrobenzofuran-4-yl]propyl]propionamide], the IC50 was 10 to 250 nM in assay [1] (Table I) and below 10 nM in assay [2] (Table I).
Take `CCNC(=O)NCCCc1cccc2oc(CCCCc3ccc(C(F)(F)F)cc3)cc12` [Example 14, N-[3-[2-[4-(4-Trifluoromethylphenyl)butyl]benzofuran-4-yl]propyl]-N′-ethyl Urea]: the half-inhibitory concentration (IC50) in assay [1] (Table III) was above 250 nM; in assay [2] (Table III), 10 to 250 nM.
